{"source": "patent US20250325543A1", "about": "“EGFR TKIs FOR USE IN THE TREATMENT OF NON-SMALL LUNG CANCER” (ASTRAZENECA AB, priority 2020, published 2025)", "key": {"[1]": {"system": "patients with advanced mutation-positive EGFR (Ex19del or L858R) NSCLC", "settings": "cited from earlier work"}, "[2]": {"system": "stage IB-IIIA EGFRm NSCLC patients", "test": "ADAURA phase 3 double-blind, randomized, placebo-controlled study of adjuvant AZD9291 after complete tumour resection", "assay_type": "in vivo, human", "settings": "for DFS HR (95% CI) / reduction in the risk of disease recurrence or death: osimertinib vs placebo", "procedure": "Adjuvant chemotherapy should have consisted of a platinum based doublet given for a maximum of 4 cycles.\nPatients were randomised 1:1, to receive either AZD9291 or placebo. […] Patients were randomised within 10 weeks following complete surgical resection if adjuvant chemotherapy was not administered, within 26 weeks following surgery if adjuvant chemotherapy was administered.\nAccounting for patients who are found to have wild type EGFR, sample attrition and 10% screen fail rate for other reasons, it was estimated that approximately 3200 patients would be screened to randomize approximately 700 patients. Approximately 60% of patients were recruited from Asia and 40% from non-Asian countries. The proportion of patients randomized with stage 1B cancer was approximately 30% and the proportion of patients randomized with stage II-IIIA cancer was approximately 70%. Patients were stratified at randomization by stage (IB vs II vs IIIA), mutation type (Ex19Del/L858R either alone or in combination with other EGFR mutations) as confirmed by a central laboratory using a tissue based test, and race (Asian/non-Asian).\nPatients undergo regular CT scan (chest and abdomen including liver and adrenal glands) with additional anatomy imaging, as indicated by signs and symptoms of the patient, for disease recurrence. Disease free survival (DFS) shall be measured from the date of randomization until date of disease recurrence or death (from any cause) in the absence of recurrence by investigational site assessment.\nMale and female patients aged 18 years and over (patients from Japan/Taiwan aged at least 20 years) with histologically confirmed diagnosis of primary non-squamous non-small cell carcinoma of the lung, with complete surgical resection of the primary tumour, and who were classified post-operatively as stage IB, II or IIIA on the basis of pathologic criteria were eligible for this study (stage IB patients were excluded in Japan). Recruitment of patients with stage IB disease was closed when approximately 210 (30%) had been randomized and recruitment of patients with stage II-IIIA disease was closed when approximately […] (70%) had been randomized. Patients were confirmed to have a tumour that harbours one of the most common EGFR mutations known to be associated with EGFR-TKI sensitivity (Ex19Del; L858R) either alone or in combination with other EGFR mutations as confirmed by a central test.\nTreatment with AZD9291 (80 mg once daily) or placebo commenced following randomization. Patients will continue on randomised treatment until recurrence of disease, treatment discontinuation criterion is met or treatment is completed.\nAZD9291 (80 mg orally, once daily) or matching placebo, in accordance with the randomization schedule, was administered.\nDisease-free survival is the primary endpoint in this study and is defined as the time from the date of randomization until the date of disease recurrence or death from any cause in the absence of disease recurrence. Disease recurrence is defined as evidence of disease recurrence on CT or MRI scan and/or pathological disease on biopsy by investigational site assessment. The primary population is the stage II/IIIA patients.\nDFS rate at 2, 3, 4 and 5 years is defined as the proportion of patients alive and disease free at 2, 3, 4 and 5 years, respectively, estimated from Kaplan Meier plots of the primary endpoint of DFS at the time of the primary analysis.\nDFS in the subset of patients with stage II-IIIA cancer will be analysed using a log rank test stratified by stage (II, IIIA), mutation type (Ex19Del, L858R either alone or in combination with other EGFR mutations) and race (Asian, Non-Asian) for the generation of the p-value and using the Breslow approach for handling ties."}, "[3]": {"settings": "patients with CNS metastases on a baseline brain scan, vs standard EGFR-TKIs"}, "[4]": {"settings": "Stage IB/II/IIIA (overall population)"}, "[5]": {"settings": "Stage IB/II/IIIA (overall population), listed as osimertinib"}, "[6]": {"settings": "Stage II/IIIA patient population, immature OS (5% maturity)"}}}
{"smiles": "C=CC(=O)Nc1cc(Nc2nccc(-c3cn(C)c4ccccc34)n2)c(OC)cc1N(C)CCN(C)C", "note": "[Osimertinib, N-(2-{2-dimethylaminoethyl-methylamino}-4-methoxy-5-{[4-(1-methylindol-3-yl)pyrimidin-2-yl]amino}phenyl) prop-2-enamide]", "values": [{"measurement": "median overall survival", "setting": "[1]; first-line therapy", "value": 38.6, "unit": "months"}, {"measurement": "median progression free survival (PFS)", "setting": "[1]; first-line therapy", "value": 18.9, "unit": "months"}, {"measurement": "events of CNS progression, % patients", "setting": "[1]; irrespective of known or treated CNS metastases at trial entry", "value": 6, "unit": "%"}, {"measurement": "hazard ratio for death", "setting": "[1]; osimertinib vs comparator group", "value": 0.80}, {"measurement": "PFS hazard ratio (HR)", "setting": "[1]; osimertinib vs erlotinib or gefitinib", "value": 0.46}, {"measurement": "median CNS PFS", "setting": "[1]; patients with CNS metastases on a baseline brain scan", "value": "not reached"}, {"measurement": "CNS PFS HR", "setting": "[1]; [3]", "value": 0.48}, {"measurement": "reduction in the risk of CNS progression", "setting": "[1]; [3]", "value": 52, "unit": "%"}, {"measurement": "2 year DFS rate, % (95% CI)", "setting": "[2]; Adjuvant chemotherapy received", "value": 88.3, "unit": "%"}, {"measurement": "2 year DFS rate, % (95% CI)", "setting": "[2]; No adjuvant chemotherapy", "value": 89.2, "unit": "%"}, {"measurement": "2 year DFS rate, % (95% CI)", "setting": "[2]; Stage IB", "value": "87 (77, 93) %"}, {"measurement": "Median DFS, months (95% CI)", "setting": "[2]; Stage IB", "value": "NR (NC, NC)"}, {"measurement": "2 year DFS rate, % (95% CI)", "setting": "[2]; [4]", "value": 88.8, "unit": "%"}, {"measurement": "2 year DFS rate, % (95% CI)", "setting": "[2]; [5]", "value": 89, "unit": "%"}, {"measurement": "2 year DFS rate, % (95% CI)", "setting": "[2]; Stage II", "value": "91 (82, 95)^ %"}, {"measurement": "Median DFS, months (95% CI)", "setting": "[2]; Stage II", "value": "NR (NC, NC)"}, {"measurement": "2 year DFS rate, % (95% CI)", "setting": "[2]; Stage II-IIIA", "value": 89.5, "unit": "%"}, {"measurement": "deaths (% of patients)", "setting": "[2]; [6]", "value": 3, "unit": "%"}, {"measurement": "deaths (number of patients)", "setting": "[2]; [6]", "value": 8, "unit": "deaths"}, {"measurement": "2 year DFS rate, % (95% CI)", "setting": "[2]; Stage IIIA", "value": "88 (79, 94)^ %"}, {"measurement": "Median DFS, months (95% CI)", "setting": "[2]; Stage IIIA", "value": "38.8 (38.6, NC)^ months"}, {"measurement": "overall survival (in words)", "setting": "[2]; immature OS (5% maturity)", "value": "trend towards survival favouring osimertinib"}, {"measurement": "DFS HR (95% CI)", "setting": "[2]; Stage IB", "value": "0.50 (0.27, 0.94)"}, {"measurement": "DFS HR (95% CI)", "setting": "[2]; [4]", "value": "0.21 (0.16, 0.28);"}, {"measurement": "DFS HR (95% CI)", "setting": "[2]; [5]", "value": 0.21}, {"measurement": "DFS HR (95% CI)", "setting": "[2]; Stage II", "value": "0.17 (0.08, 0.31)"}, {"measurement": "DFS HR (95% CI)", "setting": "[2]; Stage II-IIIA", "value": "0.17 (0.12, 0.23);"}, {"measurement": "DFS HR (95% CI)", "setting": "[2]; Stage II-IIIA, listed as osimertinib", "value": "0.17 (0.12, 0.23)"}, {"measurement": "DFS HR (95% CI)", "setting": "[2]; Stage IIIA", "value": "0.12 (0.07, 0.20)"}, {"measurement": "DFS HR (95% CI)", "setting": "[2]; adjuvant chemotherapy received", "value": 0.17}, {"measurement": "DFS HR (95% CI)", "setting": "[2]; no adjuvant chemotherapy", "value": 0.17}, {"measurement": "reduction in the risk of disease recurrence or death", "setting": "[2]; overall population", "value": 79, "unit": "%"}, {"measurement": "reduction in the risk of disease recurrence or death", "setting": "[2]; primary population of stage II/IIIA patients", "value": 83, "unit": "%"}, {"measurement": "improvement in DFS (in words)", "setting": "[2]; regardless of whether patients received prior adjuvant chemotherapy", "value": "consistent improvement in DFS"}, {"measurement": "improvement in disease free survival (DFS) (in words)", "setting": "[2]; stage IB/II/IIIA EGFRm NSCLC, adjuvant setting", "value": "statistically significant and clinically meaningful improvement"}]}
